The supplement of paper PMC10307832

How the values were obtained:
Test in all cases: relative viability (nuclei count vs DMSO), 5 days (fraction); higher = more cells survive
[1] = compound: C1=CC=C2C(=C1)N=C(S2)C(C#N)C3=NC(=NC=C3)NCCC4=CN=CC=C4 + Nc1nc2[nH]cc(CCc3ccc(C(=O)N[C@@H](CCC(=O)O)C(=O)O)cc3)c2c(=O)[nH]1 [Pemetrexed] (partner 0.2 µM)
How it was run: (§1)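 Relative viability was taken as the ratio of nuclei in treated wells to nuclei in vehicle wells. Lung cancer cell lines in 1536-well plates received compounds by pin tool one day after seeding, either one drug alone or a fixed anchor-drug dose plus five library-drug doses (not always all listed) in √10 steps. Nuclei were counted on 4× images after 5 days of treatment, and values are medians of duplicate plates.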

CUDC-101 + OSI-027 = compound: C#Cc1cccc(Nc2ncnc3cc(OC)c(OCCCCCCC(=O)NO)cc23)c1 [CUDC-101] + COc1cccc2cc(-c3nc([C@H]4CC[C@H](C(=O)O)CC4)n4ncnc(N)c34)[nH]c12 [OSI-027] (partner 0.5 µM)
How it was run: as §1

CUDC-101 + Luminespib = compound: C#Cc1cccc(Nc2ncnc3cc(OC)c(OCCCCCCC(=O)NO)cc23)c1 [CUDC-101] + CCNC(=O)c1noc(-c2cc(C(C)C)c(O)cc2O)c1-c1ccc(CN2CCOCC2)cc1 [Luminespib] (partner 0.01 µM)
How it was run: as §1

[2] = compound: C1=CC=C2C(=C1)N=C(S2)C(C#N)C3=NC(=NC=C3)NCCC4=CN=CC=C4 + O=C(c1cc(Cc2n[nH]c(=O)c3ccccc23)ccc1F)N1CCN(C(=O)C2CC2)CC1 [Olaparib] (partner 8 µM)
How it was run: as §1

Cell Line | relative viability ([1]; first compound 0.01581 µM) | relative viability ([1]; first compound 0.05 µM) | relative viability ([1]; first compound 0.1581 µM) | relative viability ([1]; first compound 0.5 µM) | relative viability (CUDC-101 + OSI-027; first compound 0.01 µM) | relative viability (CUDC-101 + OSI-027; first compound 0.03162 µM) | relative viability (CUDC-101 + OSI-027; first compound 0.1 µM) | relative viability (CUDC-101 + OSI-027; first compound 0.3162 µM) | relative viability (CUDC-101 + OSI-027; first compound 1 µM) | relative viability (CUDC-101 + Luminespib; first compound 0.01 µM) | relative viability (CUDC-101 + Luminespib; first compound 0.03162 µM) | relative viability (CUDC-101 + Luminespib; first compound 0.1 µM) | relative viability (CUDC-101 + Luminespib; first compound 0.3162 µM) | relative viability (CUDC-101 + Luminespib; first compound 1 µM) | relative viability ([2]; first compound 0.01581 µM) | relative viability ([2]; first compound 0.05 µM) | relative viability ([2]; first compound 0.1581 µM) | relative viability ([2]; first compound 0.5 µM) | relative viability ([1]; first compound 0.005 µM) | relative viability ([2]; first compound 0.005 µM)
NCI-H1915 | 0.506 | 0.434 | 0.563 | 0.481 | 0.627 | 0.597 | 0.591 | 0.551 | 0.404 | 0.908 | 0.787 | 0.774 | 0.788 | 0.551 | 0.266 | 0.249 | 0.283 | 0.292 |  | 
NCI-H522 | 0.698 | 1.01 | 0.807 | 1.03 | 0.638 | 0.64 | 0.67 | 0.703 | 0.549 | 1.18 | 1.19 | 1.03 | 1.66 | 0.686 | 0.638 | 0.634 | 0.533 | 0.751 | 1.22 | 0.66
NCI-H358 | 0.173 | 0.169 | 0.165 | 0.188 | 0.834 | 0.893 | 0.909 | 0.884 | 0.315 | 0.263 | 0.407 | 0.225 | 0.659 | 0.448 | 0.658 | 0.653 | 0.698 | 0.419 | 0.265 | 0.413
CAL-12T | 1.19 | 1.11 | 1.43 | 0.88 | 0.706 | 0.668 | 0.777 | 0.71 | 0.575 | 0.525 | 0.337 | 0.337 | 0.556 | 0.36 | 0.658 | 0.739 | 0.866 | 0.648 | 0.575 | 0.712
NCI-H2085 | 0.785 | 0.843 | 0.851 | 0.89 | 0.577 | 0.646 | 0.728 | 0.835 | 0.535 | 0.479 | 0.446 | 0.437 | 0.45 | 0.385 | 0.765 | 0.738 | 0.778 | 0.794 | 0.763 | 0.765
LCLC-97TM1 | 0.185 | 0.181 | 0.172 | 0.198 | 0.635 | 0.571 | 0.445 | 0.548 | 0.273 | 0.849 | 0.857 | 0.771 | 0.765 | 0.502 | 0.362 | 0.354 | 0.592 | 0.362 | 0.196 | 0.289
NCI-H596 | 0.517 | 0.485 | 0.58 | 0.495 | 0.655 | 0.715 | 0.783 | 0.805 | 0.751 | 1.12 | 0.936 | 0.923 | 0.927 | 0.972 | 0.59 | 0.608 | 0.632 | 0.643 | 0.464 | 0.599
NCI-H2228 | 0.324 | 0.305 | 0.379 | 0.259 | 0.406 | 0.689 | 0.671 | 0.615 | 0.419 | 0.114 | 0.164 | 0.169 | 0.19 | 0.188 | 0.738 | 0.489 | 0.729 | 0.527 | 0.302 | 0.481
PC-14 | 0.133 | 0.106 | 0.136 | 0.148 | 1.02 | 0.813 | 0.378 | 0.571 | 0.0565 | 0.133 | 0.208 | 0.16 | 0.115 | 0.114 | 0.267 | 0.211 | 0.244 | 0.247 | 0.155 | 0.28
H3255 | 0.558 | 0.532 | 0.622 | 0.584 | 0.571 | 0.556 |  | 0.395 | 0.204 | 0.845 | 0.648 |  | 0.541 | 0.439 | 0.594 | 0.603 | 0.575 | 0.534 | 0.568 | 0.55
NCI-H441 | 0.279 | 0.238 | 0.276 | 0.265 | 0.622 | 0.625 | 0.621 | 0.803 | 0.399 | 0.359 | 0.381 | 0.304 | 0.414 | 0.371 | 0.643 | 0.544 | 0.683 | 0.455 | 0.317 | 0.423
LK-2 | 0.27 | 0.295 | 0.325 | 0.281 | 0.217 | 0.212 | 0.201 | 0.203 | 0.15 | 0.248 | 0.196 | 0.19 | 0.179 | 0.178 | 0.804 | 0.63 | 0.754 | 0.766 | 0.237 | 0.645
SW 1573 | 0.782 | 0.702 | 0.9 | 0.629 | 0.578 | 0.623 | 0.726 | 0.766 | 0.279 | 0.238 | 0.252 | 0.516 | 0.187 | 0.164 | 0.491 | 0.496 | 0.508 | 0.484 | 0.598 | 0.337
